This experiment deals with SARS-CoV-2 (USA-WA1/2020). It is filed as cell-based. Particulars: Caco-2 cells, vs DMSO controls.

Read-outs that look alike come from different tables or passages of the source.

Take `Cc1cccc(/C=N/Nc2cc(N3CCOCC3)nc(OCCc3ccccn3)n2)c1` [Apilimod]: the “Percent Infection (Exp 1)” value (apilimod 31.25 nM single agent) was determined as 93.632%; the “Percent Infection (Exp 1)” value (apilimod 62.5 nM single agent) was 75.308%; the “Percent Infection (Exp 1)” value (apilimod 125 nM single agent) is reported as 35.618%; the “Percent Infection (Exp 1)” value (apilimod 250 nM single agent) stood at 11.935%; the “Percent Infection (Exp 1)” value (apilimod 500 nM single agent) is 12.267%; the “Percent Infection (Exp 1)” value (apilimod 1000 nM single agent) was 4.524%. For the same compound, the “Percent Infection (Exp 1)” value (apilimod 2000 nM single agent) is reported as 0.591%. The “Percent Infection (Exp 2)” value (apilimod 31.25 nM single agent) came to 74.342%; the “Percent Infection (Exp 2)” value (apilimod 62.5 nM single agent) was found to be 53.914%; the “Percent Infection (Exp 2)” value (apilimod 125 nM single agent) amounted to 37.259%; the “Percent Infection (Exp 2)” value (apilimod 250 nM single agent) stood at 29.685%; the “Percent Infection (Exp 2)” value (apilimod 500 nM single agent) worked out at 18.730%; the “Percent Infection (Exp 2)” value (apilimod 1000 nM single agent) is 2.968%. The “Percent Infection (Exp 2)” value (apilimod 2000 nM single agent) was 0.297%.

The values are drawn from patent US20240189317A1, “ANTIVIRAL COMPOSITIONS AND METHODS” (AI Therapeutics, Inc., priority 2021, published 2024).
